According to US20230190697A1, “METHODS FOR TREATING VIRAL INFECTIONS WITH NAFAMOSTAT” (priority 2020, published 2023):
“And” between values parts separate entries of the source, which are not always exact repeats. Equal entries are not always repeated.

Key:
[1] = test system: SD rats; assay: Single dose oral tolerability in SD rats (dose range-finding); format: in vivo
Description: Oral Tolerability in Rats: The single dose tolerability to oral nafamostat was studied in SD rats in a non-GLP pilot dose range-finding study. […] All other animals survived to 7 days and had no abnormalities at necropsy.

[2] = test system: SD rats; assay: Pilot repeat-dose oral study in male SD rats (5 days); format: in vivo; conditions: 1000 mg/kg/day PO for 5 days
Procedure: A pilot, non-GLP repeat-dose study was performed in which nafamostat mesylate (500 or 1000 mg/kg/day PO) was administered to 6 male SD rats per group for 5 days. […] One animal had petechiae on the lower third of the colon. […] Death in 2 of the animals followed seizure activity at about 1 h post-dose.

[3] = Pharmacokinetics of oral nafamostat mesylate solution in healthy male and female subjects; format: in vivo, human; conditions: human, oral, 200 mg dose level, individual subjects
Procedure: Part 1: Single Ascending Dose Study. Male and female subjects aged 18 - 70 were administered a single dose of 50 mg nafamostat mesylate on day 1, 100 mg nafamostat mesylate on day 3 or 4, and 200 mg nafamostat mesylate on day 5, 6, or 7. Nafamostat mesylate was administered in the form of an oral solution. […]
Part 2: Multiple Ascending Dose Study. Subjects were divided into 2 cohorts. Cohort 1 received an oral solution of 100 mg/mL nafamostat mesylate twice a day for 5 days with pharmacokinetic evaluations on each day. […] Safety evaluations continued for 48 hours after the last dose. After review and evidence of safety, Cohort 2 received an oral solution of 200 mg/mL nafamostat mesylate twice a day for 5 days with pharmacokinetic evaluations on each day. […] Safety evaluations continued for 48 hours after the last dose.
Part 3: Single Fixed Dose Administered Twice Daily for 5 Days. Six subjects, different than the subjects from Parts 1 and 2, received an oral solution of 200 mg/mL nafamostat mesylate twice a day for 5 days. Blood samples were obtained at pre-dose (0 hr.) and at 0.5, 1, 2, 3, 4, 6, and 8 hours after the first dose on Day 1 and again after the first dose on Day 5. […]
Oral solutions received by each subject were prepared by dissolving nafamostat mesylate in about 100 mL of EMETROL®/water and provided at a volume to deliver the indicated dosage. There was no placebo formulation.
Nafamostat pharmacokinetics was evaluated at the 200 mg dose levels.

[4] = biological target: hERG K+ channel (Homo sapiens, UniProt Q12809); assay: cell-based; conditions: human, 50 µM
Sequence of hERG K+ channel (Q12809 whole entry): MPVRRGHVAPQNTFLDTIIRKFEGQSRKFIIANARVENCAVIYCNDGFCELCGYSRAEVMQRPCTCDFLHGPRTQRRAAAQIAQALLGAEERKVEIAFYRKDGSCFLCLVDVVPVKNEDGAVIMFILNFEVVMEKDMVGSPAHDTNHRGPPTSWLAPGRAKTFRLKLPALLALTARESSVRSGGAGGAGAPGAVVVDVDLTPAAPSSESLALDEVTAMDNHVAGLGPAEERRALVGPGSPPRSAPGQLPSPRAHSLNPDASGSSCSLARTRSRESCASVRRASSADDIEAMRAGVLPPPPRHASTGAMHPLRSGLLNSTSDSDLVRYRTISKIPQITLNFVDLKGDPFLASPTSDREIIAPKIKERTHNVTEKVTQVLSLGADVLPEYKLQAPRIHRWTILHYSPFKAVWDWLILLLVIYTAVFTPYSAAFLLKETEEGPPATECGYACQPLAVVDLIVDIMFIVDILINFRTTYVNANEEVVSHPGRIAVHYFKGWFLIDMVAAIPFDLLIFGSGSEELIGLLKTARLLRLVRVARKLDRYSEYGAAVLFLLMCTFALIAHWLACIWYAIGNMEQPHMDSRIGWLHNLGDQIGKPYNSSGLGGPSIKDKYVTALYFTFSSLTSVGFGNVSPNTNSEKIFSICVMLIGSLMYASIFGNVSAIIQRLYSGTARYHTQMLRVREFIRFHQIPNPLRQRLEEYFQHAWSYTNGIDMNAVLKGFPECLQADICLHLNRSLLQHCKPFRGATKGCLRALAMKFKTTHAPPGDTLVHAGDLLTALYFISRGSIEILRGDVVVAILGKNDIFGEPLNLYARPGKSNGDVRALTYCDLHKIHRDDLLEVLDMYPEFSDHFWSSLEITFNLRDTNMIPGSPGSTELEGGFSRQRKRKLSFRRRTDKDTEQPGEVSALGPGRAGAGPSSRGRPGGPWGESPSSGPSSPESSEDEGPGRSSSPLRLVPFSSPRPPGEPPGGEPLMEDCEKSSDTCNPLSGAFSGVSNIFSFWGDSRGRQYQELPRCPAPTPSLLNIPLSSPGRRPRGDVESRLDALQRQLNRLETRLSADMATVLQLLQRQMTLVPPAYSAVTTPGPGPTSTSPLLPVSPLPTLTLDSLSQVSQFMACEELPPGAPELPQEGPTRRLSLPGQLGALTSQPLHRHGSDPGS
Procedure: Effects of nafamostat in an hERG assay: In an in vitro non-GLP screening study, effects of nafamostat on the hERG K^+ channel currents were evaluated in voltage-clamped human embryonic kidney cells at room temperature. […] A full ICH-Compliant hERG study and in vivo cardiovascular safety pharmacology study is be performed as part of the IND-enabling program.

CS(=O)(=O)O.CS(=O)(=O)O.N=C(N)Nc1ccc(C(=O)Oc2ccc3cc(C(=N)N)ccc3c2)cc1 [nafamostat mesylate, 6-amidino-2-naphthyl p-guanidinobenzoate dimethanesulfonate]
mortality ([1]; 1000 mg/kg female dose group, stomach perforations at necropsy indicate dosing misadministration): 2 of 3 animals died at 48 hours | single dose oral tolerability ([1]; both, SD, rat, in vivo, po, 7 days): ≥ 1000 mg/kg | necropsy finding in animals that died [2]: fluid filled stomach at necropsy | mortality ([2]; 6 male SD rats): Four of 6 animals receiving 1000 mg/kg/day died by day 5 | concentration at 8 h ([3]; both sexes, blood, Day 1, 8 h post-dose): < 0.1 ng/mL | concentration at 12 h ([3]; both sexes, blood, Day 1, 12 h post-dose): < 0.1 ng/mL | NM ([3]; Day 1, 0 h post-dose): < 0.100 ng/mL | NM ([3]; Day 1, 0.5 h post-dose): < 0.100 ng/mL | NM ([3]; Day 1, 1 h post-dose, listed as NM, dimethanesulfonate): < 0.100 ng/mL (4×) and 0.125 ng/mL | NM ([3]; Day 1, 2 h post-dose): < 0.100 ng/mL | NM ([3]; Day 1, 3 h post-dose): < 0.100 ng/mL | NM ([3]; Day 1, 4 h post-dose): < 0.100 ng/mL | NM ([3]; Day 1, 6 h post-dose): < 0.100 ng/mL | NM ([3]; Day 1, 8 h post-dose): < 0.100 ng/mL | NM ([3]; Day 1, 12 h post-dose): < 0.100 ng/mL | NM ([3]; Day 2, 0 h post-dose): < 0.100 ng/mL | NM ([3]; Day 2, 0.5 h post-dose): < 0.100 ng/mL | NM ([3]; Day 2, 1 h post-dose): < 0.100 ng/mL | NM ([3]; Day 2, 2 h post-dose): < 0.100 ng/mL | NM ([3]; Day 2, 3 h post-dose): < 0.100 ng/mL | NM ([3]; Day 2, 4 h post-dose): < 0.100 ng/mL | NM ([3]; Day 2, 6 h post-dose): < 0.100 ng/mL | NM ([3]; Day 2, 8 h post-dose): < 0.100 ng/mL | NM ([3]; Day 2, 12 h post-dose): < 0.100 ng/mL | NM ([3]; Day 2, 16 h post-dose): < 0.100 ng/mL | NM ([3]; Day 3, 0 h post-dose): < 0.100 ng/mL | NM ([3]; Day 3, 4 h post-dose, listed as NM, dimethanesulfonate): < 0.100 ng/mL (2×) and 0.101 ng/mL | NM ([3]; Day 3, 8 h post-dose): < 0.100 ng/mL | NM ([3]; Day 3, 12 h post-dose): < 0.100 ng/mL | NM ([3]; Day 3, 16 h post-dose): < 0.100 ng/mL | NM ([3]; Day 4, 0 h post-dose, listed as NM, dimethanesulfonate): < 0.100 ng/mL | NM ([3]; Day 4, 4 h post-dose): < 0.100 ng/mL | inhibition of hERG potassium currents [4]: approximately 24%
